Legend:
[1] = Blood brain barrier penetration, plasma and brain levels after oral administration; type: in vivo, mouse; settings: mice, single 30 mg/kg (free base equivalent) p.o.
Method: For this purpose, 8-week old wild-type male mice (C57BL/6) were administered a single 30 mg/kg (free base equivalent) p.o. dose of reference or test compound by gavage (n=3 mice per time point). Dosing solutions were prepared in water. After dosing, mice were euthanized with CO2 at the following time points: 0-, 0.5-, 1-, and 4-hour post-dose. […] Similarly, brains were collected from each mouse. Plasma was derived by spinning whole blood at 2,700×g for 10 minutes at 4° C. followed by storage on dry ice. Whole brains were washed in cold PBS to remove contaminating blood, blotted dry, flash frozen on dry ice, and ultimately stored at −80° C. until analysis. To prepare brain samples for analysis, 50-100 mg of tissue was homogenized in […] of water/mg tissue. Samples were then clarified by centrifugation. Next, 25 μl of the brain homogenate supernatant or 25 μl of plasma were combined with 25 μl of acetonitrile:water (95/5). […] Samples were again clarified by centrifugation and 75 μl of the supernatant was combined with 75 μl of acetonitrile. Samples were then analyzed for compound levels by LC-MS/MS at PPD Inc. (3230 Deming Way, Middleton, Wis. 53562). In brief, a Thermo Betasil, Silica-100, 50×3 mm, 5μ column equilibrated with a mixture of mobile phase consisting of 5 mM ammonium formate and 0.05% formic acid in (A) 95:5 acetonitrile:water or (B) 70:20:10 methanol:water:acetonitrile was employed. Between 20 and 30 μl sample was injected for analysis. For calculating drug concentrations, raw data for plasma (ng/mL) and brain (ng/g) was converted to nM using the molecular weight of respective compounds and assuming 1 g of tissue is equivalent to 1 mL volume. Concentration as a function of time was plotted in GraphPad Prism version 4.02.

GCase [2] = biological target: GCase (Homo sapiens (Human), UniProt P04062); test: GCase activity enhancement (EC50, Emax) of Table 2B; type: cell-based; settings: for increase in GCase activity compared to IFG-tartrate: compared to reference compound IFG-tartrate
Chain of GCase (Homo sapiens (Human), UniProt P04062) (P04062 40-536): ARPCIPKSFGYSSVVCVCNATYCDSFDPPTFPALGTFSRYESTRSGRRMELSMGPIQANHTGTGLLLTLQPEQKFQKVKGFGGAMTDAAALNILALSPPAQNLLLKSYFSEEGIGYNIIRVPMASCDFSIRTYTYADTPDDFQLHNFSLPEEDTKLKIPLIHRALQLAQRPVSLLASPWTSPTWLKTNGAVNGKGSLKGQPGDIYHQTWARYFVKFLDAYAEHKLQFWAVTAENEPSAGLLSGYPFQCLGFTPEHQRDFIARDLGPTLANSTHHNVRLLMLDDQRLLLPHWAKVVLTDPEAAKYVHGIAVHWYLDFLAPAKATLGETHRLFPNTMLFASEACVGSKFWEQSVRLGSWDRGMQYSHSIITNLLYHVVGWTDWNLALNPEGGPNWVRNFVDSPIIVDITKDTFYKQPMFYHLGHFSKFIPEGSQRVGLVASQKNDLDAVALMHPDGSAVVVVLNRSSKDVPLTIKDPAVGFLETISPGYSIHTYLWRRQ

GCase [3] = biological target: GCase (Mus musculus, UniProt P17439); test: GCase enhancement in tissues of orally dosed mice; type: in vivo; settings: 9 doses over 2 weeks; for GCase increase (fold): 24-hour washout; for GCase enhancement in brain and spleen: mice, p.o.
Chain of GCase (Mus musculus, UniProt P17439) (P17439 20-515 limits assumed): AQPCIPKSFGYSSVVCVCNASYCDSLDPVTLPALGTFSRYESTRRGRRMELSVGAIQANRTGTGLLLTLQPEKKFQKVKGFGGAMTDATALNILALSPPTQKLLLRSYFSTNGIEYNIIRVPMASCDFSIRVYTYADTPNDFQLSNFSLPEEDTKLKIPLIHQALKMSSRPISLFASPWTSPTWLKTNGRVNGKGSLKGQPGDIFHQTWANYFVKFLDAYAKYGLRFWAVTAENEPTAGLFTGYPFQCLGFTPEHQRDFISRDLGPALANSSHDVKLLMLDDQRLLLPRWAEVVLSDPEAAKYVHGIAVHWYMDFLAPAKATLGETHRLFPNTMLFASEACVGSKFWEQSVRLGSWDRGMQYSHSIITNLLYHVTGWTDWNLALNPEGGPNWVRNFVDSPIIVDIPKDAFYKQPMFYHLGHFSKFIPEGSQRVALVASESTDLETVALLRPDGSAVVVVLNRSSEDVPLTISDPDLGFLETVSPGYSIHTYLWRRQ
Method: The ability of orally administered test compounds ((3R,4R,5S)-5-(difluoromethyl)piperidine-3,4-diol, (3R,4R,5S)-5-(1-fluoroethyl)piperidine-3,4-diol, (3R,4R,5S)-5-((R)-1-fluoropropyl)piperidine-3,4-diol hydrochloride, or (3R,4R,5S)-5-benzylpiperidine-3,4-diol) to elevate GCase levels was assessed in mice. For this purpose, 8-week old wild-type male mice (C57BL/6) were administered a […] p.o. (gavage) dose of a compound of the present invention (i.e., (3R,4R,5S)-5-(difluoromethyl)piperidine-3,4-diol, (3R,4R,5S)-5-(1-fluoroethyl)piperidine-3,4-diol, (3R,4R,5S)-5-((R)-1-fluoropropyl)piperidine-3,4-diol hydrochloride, or (3R,4R,5S)-5-benzylpiperidine-3,4-diol). The dosing solutions were prepared in water. Compounds were administered over 2 weeks as follows: week 1, Mon-Fri (On), Sat-Sun (Off); week 2, Mon-Thu (On); necropsy on Friday. Thus, a total of 9 doses (dosing solutions prepared fresh every day) were given to each mouse, with a 24-hour washout between the last dose and necropsy.
Plasma was collected by spinning blood at 2700 g for 10 minutes at 4° C. Liver, spleen, lung, and brain tissues were removed, washed in cold PBS, blotted dry, flash frozen on dry ice, and stored at −80° C. until analysis. GCase levels were measured by homogenizing approximately 50 mg tissue in 500 μL McIlvane (MI) buffer (100 mM sodium citrate, 200 mM sodium phosphate dibasic, 0.25% sodium taurocholate, and 0.1% Triton X-100, pH 5.2) at pH 5.2 for 3-5 seconds on ice with a micro homogenizer. Homogenates were then incubated at room temperature without and with 2.5 mM conduritol-B-epoxide (CBE) for 30 min. Finally, 3.7 mM 4-methylumbeliferryl-β-glucoside (4-MUG) substrate was added and incubated at 37° C. for 60 min. […] Fluorescence was measured on a plate reader for 1 sec/well using 355 nm excitation and 460 nm emission. Total protein was determined in lysates using the MicroBCA kit according to the manufacturer's instructions. A 4-methylumbelliferone (4-MU) standard curve ranging from 1.0 nM to 50 μM was run in parallel for conversion of raw fluorescence data to absolute GCase activity (in the presence and absence of CBE) and expressed as nanomoles of 4-MU released per milligram of protein per hour (nmol/mg protein/hr). GCase levels and protein levels were calculated using Microsoft Excel (Redmond, Wash.) and GraphPad Prism version 4.02.

lysosomal GCase = lysosomal GCase (Homo sapiens (Human), UniProt P04062); test: In situ lysosomal GCase inhibition and washout assay in fibroblasts from a normal subject; type: cell-based; settings: for in situ washout from the lysosomal compartment compared to IFG-tartrate: compared to reference compound IFG-tartrate; for in situ washout: fibroblasts treated at IC90, then drug-free medium; for IC50: fibroblasts, 16-24 hours with compound, PFBFDβGlu substrate
Chain of lysosomal GCase (P04062 40-536): as the sequence (P04062 40-536) above
Method: The effect of the novel compounds of the present invention on lysosomal GCase activity was assayed in situ using fibroblasts established from a normal subject. Cells seeded in 48-well plates were incubated with the indicated concentrations of compound for 16-24 hours. For the dose-response assays, cells were incubated with the in situ substrate 5-(pentafluorobenzoylamino)fluorescein di-β-D-glucopyranoside (PFBFDβGlu) for 1 hour and subsequently lysed to determine the extent of substrate hydrolysis in the presence of compound. […] Inhibition was determined as the ratio of activity in the presence of compound to that in the absence of compound. […] Cells were washed extensively and incubated in drug-free medium to allow net compound efflux from cells. Cells were then tested for lysosomal GCase activity at 2 hour intervals over a total period of 8 hours following compound removal. The increase in activity over time was fitted with a single exponential function to determine the compound's washout time.

| levels detected in brain compared to IFG-tartrate [1] | EC50 (GCase [2]) | GCase increase (fold) (GCase [3]; brain, 10 mg/kg FBE p.o.) | GCase increase (fold) (GCase [3]; brain, 100 mg/kg FBE p.o.) | GCase increase (fold) (GCase [3]; spleen, 10 mg/kg FBE p.o.) | GCase increase (fold) (GCase [3]; spleen, 100 mg/kg FBE p.o.) | inhibition of GCase activity (lysosomal GCase) | IC50 (lysosomal GCase) | SMILES | blood brain barrier crossing compared to IFG-tartrate [1] | increase in GCase activity compared to IFG-tartrate (GCase [2]) | GCase enhancement in brain and spleen (GCase [3]) | in situ washout from the lysosomal compartment compared to IFG-tartrate (lysosomal GCase) | in situ washout (lysosomal GCase) |
| --- | --- | --- | --- | --- | --- | --- | --- | --- | --- | --- | --- | --- | --- |
| higher levels | 0.18 ± 0.01 µM | 1.2 fold | 1.4 fold | 1.0 fold | 1.2 fold | inhibited GCase activity | 1.3 ± 0.323 µM | O[C@@H]1[C@@H](Cc2ccccc2)CNC[C@H]1O [(3R,4R,5S)-5-benzyl-piperidine-3,4-diol] | crossed the blood brain barrier more readily as compared to IFG-tartrate | enhanced enzyme activity to the same maximum level as reference compound IFG-tartrate at much lower concentration | significant GCase enhancement in brain and spleen | considerably faster than reference compound IFG-tartrate | 1.2 ± 0.13 h |
| higher levels | 0.086 ± 0.002 µM | 0.9 fold | 1.1 fold | 0.7 fold | 0.7 fold | inhibited GCase activity | 0.972 ± 0.201 µM | CC[C@@H](F)[C@H]1CNC[C@@H](O)[C@@H]1O.Cl [(3R,4R,5S)-5-((R)-1-fluoropropyl)-piperidine-3,4-diol hydrochloride] | crossed the blood brain barrier more readily as compared to IFG-tartrate | enhanced enzyme activity to the same maximum level as reference compound IFG-tartrate at much lower concentration | – | – | – |

| SMILES | levels detected in brain compared to IFG-tartrate [1] | EC50 (GCase [2]) | GCase increase (fold) (GCase [3]; brain, 10 mg/kg FBE p.o.) | GCase increase (fold) (GCase [3]; brain, 100 mg/kg FBE p.o.) | GCase increase (fold) (GCase [3]; spleen, 10 mg/kg FBE p.o.) | GCase increase (fold) (GCase [3]; spleen, 100 mg/kg FBE p.o.) | inhibition of GCase activity (lysosomal GCase) | IC50 (lysosomal GCase) | blood brain barrier crossing compared to IFG-tartrate [1] | increase in GCase activity compared to IFG-tartrate (GCase [2]) | GCase enhancement in brain and spleen (GCase [3]) | in situ washout from the lysosomal compartment compared to IFG-tartrate (lysosomal GCase) | in situ washout (lysosomal GCase) |
| --- | --- | --- | --- | --- | --- | --- | --- | --- | --- | --- | --- | --- | --- |
| Cl.O[C@H]1[C@H](O)CNC[C@@H]1C(F)F [Cmpd 6, (3R,4R,5S)-5-(Difluoromethyl)piperidine 3,4-diol Hydrochloride] | higher levels | – | – | – | – | – | inhibited GCase activity | – | crossed the blood brain barrier more readily as compared to IFG-tartrate | enhanced enzyme activity to the same maximum level as reference compound IFG-tartrate at much lower concentration | significant GCase enhancement in brain and spleen | considerably faster than reference compound IFG-tartrate | 2.1 ± 0.30 h |
